According to PubChem BioAssay AID1963858 (Molecular Pharmacology Branch, DTP, NCI, 2024):

Tested on: HOP-62 multicell spheroids with HUVEC/MSC, viability
Assay: Anticancer human tumor HOP-62 cell line growth inhibition [KRAS2];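 further: viability read after a week of compound exposure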;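 on viability, T/C: 100% = DMSO vehicle-treated spheroids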
Conditions: for IC50: curve of first compound; for viability, T/C: stronger effect = lower value
Excerpt: Multicellular complex tumor spheroid response to RAS pathway inhibitors in combination with a targeted agents in patient-derived cell lines with oncogenic KRAS variants from multiple cancer types
A high-throughput screen of multi-cell type tumor spheroids was designed to identify active combinations of targeted small molecules and KRAS pathway inhibitors. Complex spheroids include a stromal component modeled by human endothelial cells (HUVEC) and fibroblasts modeled by human mesenchymal stem cells (MSCs). The concentration ranges selected for each drug and investigational agent were based upon clinically achievable concentrations if the clinical Cmax of the agent was known.
Compounds. The drugs and investigational agents: BI-3406 (NSC825286), BAY-293 (NSC824723), batoprotafib (TNO155; NSC825523), sotorasib (AMG 510; NSC818433), MRTX1257 (NSC819558), elimusertib (BAY 1895344; NSC800525), molibresib (GSK525762; NSC774829), temuterkib (LY3214996; NSC803410), venetoclax (NSC766270), alisertib (NSC759677), olaparib (NSC753686), talazoparib (NSC767125), erdafitinib (NSC781556), ipatasertib (NSC767898), cabozantinib (NSC761068), nintedanib (NSC756659), abemaciclib (NSC768073), docetaxel (NSC628503), trametinib (NSC758246), and sapanisertib (NSC764658) were obtained from the National Cancer Institute (NCI) Developmental Therapeutics Program Chemical Repository. The FDA-approved anticancer drug set is available from the Developmental Therapeutics Program. […] The stock solutions were prepared in dimethyl sulfoxide (DMSO, Sigma-Aldrich, St. Louis, MO, cat. D2650) at 800-fold the tested concentration and stored at -70 degrees C prior to their use. All drugs and investigational agents were tested over a range starting from a high concentration at or near the clinical Cmax and decreasing in half-log increments. If the clinical Cmax for an agent had not been determined, the highest concentration tested was 10 microM.
Cell Culture. All cells were maintained in an incubator at 37 degrees C and 5% CO2 with 95% humidity. The PDC lines were cultured according to standard operating procedures established by the NCI PDMR (https://pdmr.cancer.gov/sops/default.htm). Briefly, all PDCs were thawed and cultured in Matrigel-coated flasks prepared with a working solution of 1X Ham's F-12 nutrient mix, without supplementation (Invitrogen, Waltham, MA, cat. 11765054), 100 U/mL penicillin-streptomycin (Invitrogen, cat. 15140122), and 2.5% Matrigel (Corning Inc., Corning, NY, cat. 354248) for the first three passages. All PDCs were cultured in complete DMEM/F-12 media containing advanced DMEM/F-12 (Invitrogen, cat. 12634028), 4.9% defined fetal bovine serum, heat inactivated (HyClone Laboratories Inc., Logan, UT, cat. SH30070.03HI), 389 ng/mL hydrocortisone (Sigma-Aldrich, cat. H4001), 9.7 ng/mL human EGF recombinant protein (Invitrogen, cat. PHG0313), 23.4 microg/mL adenine (Sigma-Aldrich, cat. A2786), 97.3 U/mL penicillin-streptomycin (Invitrogen, cat. 15140122), 1.9 mM L-glutamine (Invitrogen, cat. 25030081), and 9.7 microM Y-27632 dihydrochloride (Tocris Bioscience, Bristol, United Kingdom, cat. 1254). The PDCs were cultured in complete DMEM/F12 media without 9.7 microM Y-27632 dihydrochloride for at least two passages prior to the screen. The established cell line HOP-62 was cultured in RPMI 1640 medium, HEPES (Invitrogen, cat. 22400105) with 10% defined fetal bovine serum (HyClone Laboratories Inc., cat. SH30070.03) and 2 mM L-glutamine (Invitrogen, cat. 25030081). The pooled donor HUVEC were cultured in endothelial cell growth medium 2 (PromoCell, Heidelberg, Germany, cat. C-22011) and the hMSC were cultured in mesenchymal stem cell growth medium 2 (PromoCell, cat. C-28009). For all experiments, HUVEC and hMSC were used at passages </=5, while the malignant cell lines were used at passages </=15. […]

[1] = second compound 0.1 µM, first compound 0.01 µM
[2] = second compound 0.1 µM, first compound 0.0316 µM
[3] = second compound 0.1 µM, first compound 0.1 µM
[4] = second compound 0.1 µM, first compound 0.316 µM
[5] = second compound 0.1 µM, first compound 1 µM
[6] = second compound 0.1 µM, first compound 3.16 µM
[7] = second compound 0.316 µM, first compound 0.01 µM
[8] = second compound 0.316 µM, first compound 0.0316 µM
[9] = second compound 0.316 µM, first compound 0.1 µM
[10] = second compound 0.316 µM, first compound 0.316 µM
[11] = second compound 0.316 µM, first compound 1 µM
[12] = second compound 0.316 µM, first compound 3.16 µM
[13] = second compound 1 µM, first compound 0.01 µM
[14] = second compound 1 µM, first compound 0.0316 µM
[15] = second compound 1 µM, first compound 0.1 µM
[16] = second compound 1 µM, first compound 0.316 µM
[17] = second compound 1 µM, first compound 1 µM
[18] = second compound 1 µM, first compound 3.16 µM
[19] = second compound 3.16 µM, first compound 0.01 µM
[20] = second compound 3.16 µM, first compound 0.0316 µM
[21] = second compound 3.16 µM, first compound 0.1 µM
[22] = second compound 3.16 µM, first compound 0.316 µM
[23] = second compound 3.16 µM, first compound 1 µM
[24] = second compound 3.16 µM, first compound 3.16 µM
[25] = second compound 10 µM, first compound 0.01 µM
[26] = second compound 10 µM, first compound 0.0316 µM
[27] = second compound 10 µM, first compound 0.1 µM
[28] = second compound 10 µM, first compound 0.316 µM
[29] = second compound 10 µM, first compound 1 µM
[30] = second compound 10 µM, first compound 3.16 µM

Row | SMILES | IC50 (second compound 0.1 µM) | IC50 (second compound 0.316 µM) | IC50 (second compound 1 µM) | IC50 (second compound 3.16 µM) | IC50 (second compound 10 µM) | viability, T/C [1] | viability, T/C [2] | viability, T/C [3] | viability, T/C [4] | viability, T/C [5] | viability, T/C [6] | viability, T/C [7] | viability, T/C [8] | viability, T/C [9] | viability, T/C [14] | viability, T/C [15] | viability, T/C [20] | viability, T/C [21] | viability, T/C [26] | viability, T/C [27] | other results
1 | CC(=O)OC12COC1CC(O)C1(C)C(=O)C(O)C3=C(C)C(OC(=O)C(O)C(NC(=O)OC(C)(C)C)c4ccccc4)CC(O)(C(OC(=O)c4ccccc4)C21)C3(C)C (stereo not given) + C=CC(=O)N1CCN(c2nc(=O)n(-c3c(C)ccnc3C(C)C)c3nc(-c4c(O)cccc4F)c(F)cc23)C(C)C1 | < 10 nM | < 10 nM | < 10 nM | < 10 nM | < 10 nM | 24.3% | 27.3% | 26.8% | 25.1% | 25.2% | 28.5% | 29.5% | 23.9% | 24.7% | 23% | 28% | 25.4% | 27% | 26.9% | 27.9% | viability, T/C [10]: 27.3%; viability, T/C [11]: 24.9%; viability, T/C [12]: 31.1%; viability, T/C [13]: 29.4%; viability, T/C [16]: 27.8%; viability, T/C [17]: 30.2%; viability, T/C [18]: 30%; viability, T/C [19]: 32.8%; viability, T/C [22]: 35.1%; viability, T/C [23]: 32.5%; viability, T/C [24]: 33.1%; viability, T/C [25]: 28.1%; viability, T/C [28]: 29.9%; viability, T/C [29]: 30.8%; viability, T/C [30]: 34.6%
2 | CN(C)C/C=C/C(=O)Nc1cc2c(Nc3ccc(F)c(Cl)c3)ncnc2cc1O[C@H]1CCOC1 + C=CC(=O)N1CCN(c2nc(=O)n(-c3c(C)ccnc3C(C)C)c3nc(-c4c(O)cccc4F)c(F)cc23)C(C)C1 | > 100 nM | > 100 nM | > 100 nM | > 100 nM | 19.2 nM | 58.9% | 54.4% | 65.7% |  |  |  | 65% | 51.1% | 58% | 61.1% | 62.4% | 63.4% | 54% | 48.6% | 42.3% | viability, T/C (second compound 0.1 µM, first compound 0.000316 µM): 65.1%; viability, T/C (second compound 0.1 µM, first compound 0.001 µM): 69.1%; viability, T/C (second compound 0.1 µM, first compound 0.00316 µM): 67.8%; viability, T/C (second compound 0.316 µM, first compound 0.000316 µM): 79.5%; viability, T/C (second compound 0.316 µM, first compound 0.001 µM): 69.9%; viability, T/C (second compound 0.316 µM, first compound 0.00316 µM): 66%; viability, T/C (second compound 1 µM, first compound 0.000316 µM): 81.1%; viability, T/C (second compound 1 µM, first compound 0.001 µM): 80.5%; viability, T/C (second compound 1 µM, first compound 0.00316 µM): 61.9%; viability, T/C [13]: 69.8%; viability, T/C (second compound 3.16 µM, first compound 0.000316 µM): 71.5%; viability, T/C (second compound 3.16 µM, first compound 0.001 µM): 65.1%; viability, T/C (second compound 3.16 µM, first compound 0.00316 µM): 70.9%; viability, T/C [19]: 71.8%; viability, T/C (second compound 10 µM, first compound 0.000316 µM): 56.9%; viability, T/C (second compound 10 µM, first compound 0.001 µM): 51.1%; viability, T/C (second compound 10 µM, first compound 0.00316 µM): 54.5%; viability, T/C [25]: 52%
3 | O=C(c1cc(Cc2n[nH]c(=O)c3ccccc23)ccc1F)N1CCN(C(=O)C2CC2)CC1 + C=CC(=O)N1CCN(c2nc(=O)n(-c3c(C)ccnc3C(C)C)c3nc(-c4c(O)cccc4F)c(F)cc23)C(C)C1 | 39.7 nM | 271 nM | 708 nM | 249 nM | < 31.6 nM |  | 50.3% | 47.2% | 37.5% | 35.6% | 27.7% |  | 64% | 61.2% | 59.3% | 54.7% | 58.9% | 50.5% | 52% | 46.1% | viability, T/C (second compound 0.1 µM, first compound 10 µM): 27.4%; viability, T/C [10]: 45.5%; viability, T/C [11]: 40.4%; viability, T/C [12]: 37.6%; viability, T/C (second compound 0.316 µM, first compound 10 µM): 29.3%; viability, T/C [16]: 53.2%; viability, T/C [17]: 49.8%; viability, T/C [18]: 40.8%; viability, T/C (second compound 1 µM, first compound 10 µM): 31.6%; viability, T/C [22]: 48.3%; viability, T/C [23]: 47.8%; viability, T/C [24]: 42.1%; viability, T/C (second compound 3.16 µM, first compound 10 µM): 37.4%; viability, T/C [28]: 48.8%; viability, T/C [29]: 46.7%; viability, T/C [30]: 43.2%; viability, T/C (second compound 10 µM, first compound 10 µM): 36.8%
